Measurements taken from publication PMC6753678, “Fueling Open Innovation for Malaria Transmission-Blocking Drugs: Hundreds of Molecules Targeting Early Parasite Mosquito Stages” (Frontiers in Microbiology, 2019).
Read-outs that look alike come from different tables or passages of the source.

Experiments:
[1] = system: 3D7-strain P. falciparum asexual parasites; test: P. falciparum asexual growth inhibition assay (Pf GIA); type: cell-based, Plasmodium falciparum; conditions: dose response confirmation; read-out: Pf asexual growth inhibition assays IC50
Summary of the method: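 LDH readout: absorbance at 650 nm after 10 min at room temperature with lactate/APAD/NBT/diaphorase mix on thawed plates. Cultures (0.25% parasitemia, 2% hematocrit) were treated 72 h at 37°C in low-oxygen gas. Inhibition was normalised to 50 μM chloroquine and DMSO; n=3 biological replicates.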

[2] = system: HepG2 cells; test: HepG2 cytotoxicity assay; conditions: for Pb ODA (this manuscript) HepG2 cytoxicity: HepG2 cytotoxicity listed with the Pb ODA data set (this manuscript); for IC50: read-out: HepG2 cytotoxicity assay IC50, dose response confirmation; for Unified cytotox: unified HepG2 value across the three screens
Summary of the method: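 Here viability after a 48 h compound incubation (37°C, humidified 5% CO2) is measured by fluorescence and expressed as percent inhibition, with doxorubicin at 50 μM and DMSO as the bounding controls.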

[3] = system: P. berghei ookinete development; conditions: for % inhibition, Replicate A / % inhibition, Replicate B: primary screen at 1 μM
[4] = read-out: Pb ODA (this manuscript) IC50, P. berghei ookinete development assay, this manuscript
[5] = read-out: Pb Ookinete development assay IC50, dose response confirmation
[6] = read-out: Pb ODA IC50, this manuscript

Row | Compound | IC50 [1] | Pb ODA (this manuscript) HepG2 cytoxicity [2] | IC50 [2] | % inhibition, Replicate A [3] | % inhibition, Replicate B [3] | IC50 [3, 4] | IC50 [3, 5] | Unified cytotox [2] | Is compound selective in assay? Pb ODA active? ([3]; 1: YES, 0: NO) | IC50 [3, 6] | Is compound selective in assay? Pb ODA active? [3]
1 | Cc1nc(NC2=NCN(CCCN3CCOCC3)CN2)nc2c(C)cccc12 [TCMDC-125086] | 1820 nM | 100.00 µM | 100000 nM | 51.18% | 62.28% | 11100 nM | 11100 nM | – | – | – | –
2 | CCOC(=O)C1=C(C)NC2=C(C(=O)C(C(=O)OC)C(C)C2)C1c1cc(Br)c(OCC)c(OC)c1 (centres unmarked) [TCMDC-125139] | 1420 nM | – | 100000 nM | 3.38% | 50.55% | – | 9060 nM | 100.00 µM | 1 (1: YES) | 9060 nM | –
3 | COc1cc(Nc2ccc3cc(S(=O)(=O)N4CCCCC4C)ccc3n2)cc(OC)c1OC (centres unmarked) [TCMDC-125163] | 4260 nM | – | 24600 nM | 58.55% | 48.73% | – | 1060 nM | 24.55 µM | 1 (1: YES) | 1060 nM | –
4 | CCOc1cccc(C(=O)Nc2nonc2-c2ccc(OC)c(OC)c2)c1 [TCMDC-125179] | < 0.2 nM | – | 6760 nM | 52.92% | 35.19% | – | 7640 nM | 6.76 µM | 0 (0: NO) | 7640 nM | –
5 | Cc1ccc(S(=O)(=O)N2CCCN(C(=O)c3cc(-c4ccccc4)n[nH]3)CC2)cc1 [TCMDC-125243] | 273 nM | 100.00 µM | 100000 nM | 53.41% | 33.70% | 5420 nM | 5420 nM | – | – | – | 1 (key: 1: YES; 0: NO)
6 | Cc1[nH]c2ccccc2c1C(=O)C(C)Sc1nnc(-c2ccccc2F)o1 (centres unmarked) [TCMDC-125312] | 1270 nM | – | 57500 nM | 63.08% | 65.66% | – | 2580 nM | 57.54 µM | 1 (1: YES) | – | –
7 | CN(C)c1ccc(C=CC(=O)NC(=O)c2ccccc2O)cc1 [TCMDC-125391] | 123 nM | – | 100000 nM | 87.61% | 62.62% | – | 210 nM | 100.00 µM | 1 (1: YES) | – | –
8 | O=C(c1ccco1)N1CCN(c2ccc([N+](=O)[O-])c(NC3CC3)c2)CC1 [TCMDC-125397] | < 0.2 nM | – | 2040 nM | 106.00% | 90.44% | – | 1160 nM | 2.04 µM | 0 (0: NO) | 1160 nM | –
9 | CC(Oc1ccc(NC(=O)c2cccs2)cc1)C(=O)c1ccc(Cl)cc1 (centres unmarked) [TCMDC-125438] | 512 nM | 100.00 µM | 100000 nM | 52.47% | 58.23% | 1010 nM | 1010 nM | – | – | – | 1 (key: 1: YES; 0: NO)
10 | Cc1ccc(Cn2c(N3CCC(C(=O)NCc4ccccn4)CC3)nc3ccccc32)cc1 [TCMDC-125442] | 469 nM | – | 69200 nM | 48.51% | 58.27% | – | 1180 nM | 69.18 µM | 1 (1: YES) | 1180 nM | –
11 | COc1ccc(Cl)cc1NC(=O)CN(C)C(=O)c1cnn(-c2ccccc2)n1 [TCMDC-125457] | 222 nM | – | 100000 nM | 53.54% | 37.16% | – | 5110 nM | 100.00 µM | 1 (1: YES) | 5110 nM | –
12 | O=C1C(c2ccccc2)=C(Nc2cccc(OC(F)(F)C(F)F)c2)c2ccccc21 [TCMDC-125498] | 68 nM | 100.00 µM | 100000 nM | 29.02% | 52.36% | 1380 nM | 1380 nM | – | – | – | 1 (key: 1: YES; 0: NO)
13 | COc1ccc(NC2=C(c3ccccc3)C(=O)c3ccccc32)cn1 [TCMDC-125501] | 385 nM | 100.00 µM | 100000 nM | 44.98% | 57.32% | 1980 nM | 1980 nM | – | – | – | 1 (key: 1: YES; 0: NO)
